Assay results as given in article PMC8151276, “An Integrated Approach toward NanoBRET Tracers for Analysis of GPCR Ligand Engagement” (Molecules, 2021).

Tests used:
Type in all cases: binding
HTR2A = molecular target: T1, HTR2A (Homo sapiens, UniProt P28223); test: NanoBRET screen HiBiT-HTR2A in HEK293; conditions: HTR2A
T1 construct: purchased Promega (in-house HiBiT-GPCR construct library, NanoBRET)

TACR3 = molecular target: T2, TACR3 (Homo sapiens, UniProt P29371); test: NanoBRET screen HiBiT-TACR3 in HEK293; conditions: TACR3
T2 construct: purchased Promega (in-house HiBiT-GPCR construct library, NanoBRET)
T2 sequence (P29371 1-465): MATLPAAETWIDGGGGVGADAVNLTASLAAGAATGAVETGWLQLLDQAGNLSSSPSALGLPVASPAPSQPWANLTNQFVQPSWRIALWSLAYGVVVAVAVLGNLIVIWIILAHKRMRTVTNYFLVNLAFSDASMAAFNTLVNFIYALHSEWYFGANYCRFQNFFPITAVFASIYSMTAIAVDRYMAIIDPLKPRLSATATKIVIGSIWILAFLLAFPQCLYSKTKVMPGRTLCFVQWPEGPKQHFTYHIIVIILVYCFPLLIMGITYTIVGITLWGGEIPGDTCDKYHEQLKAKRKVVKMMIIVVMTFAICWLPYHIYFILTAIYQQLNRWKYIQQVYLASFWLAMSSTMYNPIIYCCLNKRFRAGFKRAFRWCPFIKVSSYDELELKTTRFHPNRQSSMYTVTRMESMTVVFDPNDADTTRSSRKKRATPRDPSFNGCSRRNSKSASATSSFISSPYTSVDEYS
Experimental: (§1) Each tracer candidate was screened across the entire library of HiBiT-GPCR constructs using NanoBRET as the detection modality. As depicted in Figure 4A, the specificity of interactions was evaluated through decrease in BRET due to competitive displacement of a bound tracer by excess parental compound. Each tracer was analyzed for binding to each HiBiT-GPCR fusion in the absence and in the presence of competing parental compound. Briefly, HEK293 cells were transfected with HiBiT-GPCR constructs diluted into promoterless DNA to reduce expression and maximize translocation to the cell surface. Each tracer candidate was then screened at concentrations of 1 μM and 0.1 μM across cells expressing these fusions. Cells were treated for 1.5 h with tracer either alone or in the presence of 20 μM competing parental compound (i.e., control). BRET was measured upon addition of purified LgBiT and subsequent complementation with HiBiT genetically fused to a GPCR. The specificity of interactions was assessed through a decrease in BRET signal due to competitive displacement of the bound tracer. To further gauge the robustness of these interactions, the fold response over the control (i.e., BRETtracer/BRETcontrol) was calculated. We chose a 1.5-fold response, which translates to ≥7-fold signal over noise as the minimal threshold required to score an interaction as positive. […]. Below we highlight the screening results obtained for our exemplary fluorescent tracers based on Clozapine, Amitriptyline and AZD1283.
(§2) HiBiT-GPCR DNA constructs were diluted in 10 mM Tris pH 8 to a final concentration of 0.01 μg/μL, arrayed in 96-well plates and stored at −20 °C. For transfection, HEK293 cells were suspended in Opti-MEM (without phenol red) supplemented with 2% fetal bovine serum (Seradigm) and 100 units/mL penicillin–streptomycin (Gibco) at a final concentration of 220,000 cells/mL and dispensed into white 96-well plates at 90 μL/well. Subsequent transfections and screens were carried using an Agilent Bravo Automated Liquid Handling Platform. First, the 96-well HiBiT DNA arrays were diluted 25-fold in Opti-MEM (without serum or phenol red) to a final concentration of 0.0004 μg/μL and 20 μL of the diluted DNAs were transferred into new 96-well plates. Next, promoterless carrier DNA (1 μg/μL) was diluted 25-fold (0.04 μg/μL) and then dispensed into the diluted arrays at 20 μL/well. Following brief mixing, Viafect transfection reagent (Promega) diluted 16-fold into Opti-MEM was dispensed into the plates at 40 μL/well. After mixing by pipetting, plates were incubated for 10 min on the pipetting station deck. The DNA-transfection reagent complexes were then added to plates containing cells. To facilitate the screen, 10 μL of DNA-transfection reagent complexes were added in duplicates to the top 4 and bottom 4 rows, resulting in two identical 48-well arrays per plate. Plates with transfected cells were incubated for 18–20 h at 37 °C/5% CO2. A screen of each tracer across the entire library using two different concentrations requires duplicate plates of transfected cells. Depending on the number of tracers being screened, transfections can be scaled up using the same ratios. The next day, for each tracer, four 20× screening solutions in tracer dilution buffer (Promega) were prepared: two duplicates at final concentration of 20 μM and two duplicates at a final concentration of 2 μM. A competing unmodified compound was added to one of each duplicate at a final concentration of 400 μM. The four resulting solutions were diluted 4-fold in Opti-MEM without serum or phenol red to generate 5× solutions (5 µM and 0.5 µM tracer +/− 100 μM competing compound). To screen the library, a BioTek MultiFlo FX liquid dispenser was used to dispense 22.5 µL of tracer solution to the top 4 rows and 22.5 µL tracer + competing compound solution to the 4 bottom rows. Plates were briefly mixed on an orbital shaker and incubated for 1.5 h at room temperature. […]

FZD8 = molecular target: T3, FZD8 (Homo sapiens, UniProt Q9H461); test: NanoBRET screen HiBiT-FZD8 in HEK293; conditions: FZD8
T3 construct: purchased Promega (in-house HiBiT-GPCR construct library, NanoBRET)
T3 sequence (Q9H461 28-694): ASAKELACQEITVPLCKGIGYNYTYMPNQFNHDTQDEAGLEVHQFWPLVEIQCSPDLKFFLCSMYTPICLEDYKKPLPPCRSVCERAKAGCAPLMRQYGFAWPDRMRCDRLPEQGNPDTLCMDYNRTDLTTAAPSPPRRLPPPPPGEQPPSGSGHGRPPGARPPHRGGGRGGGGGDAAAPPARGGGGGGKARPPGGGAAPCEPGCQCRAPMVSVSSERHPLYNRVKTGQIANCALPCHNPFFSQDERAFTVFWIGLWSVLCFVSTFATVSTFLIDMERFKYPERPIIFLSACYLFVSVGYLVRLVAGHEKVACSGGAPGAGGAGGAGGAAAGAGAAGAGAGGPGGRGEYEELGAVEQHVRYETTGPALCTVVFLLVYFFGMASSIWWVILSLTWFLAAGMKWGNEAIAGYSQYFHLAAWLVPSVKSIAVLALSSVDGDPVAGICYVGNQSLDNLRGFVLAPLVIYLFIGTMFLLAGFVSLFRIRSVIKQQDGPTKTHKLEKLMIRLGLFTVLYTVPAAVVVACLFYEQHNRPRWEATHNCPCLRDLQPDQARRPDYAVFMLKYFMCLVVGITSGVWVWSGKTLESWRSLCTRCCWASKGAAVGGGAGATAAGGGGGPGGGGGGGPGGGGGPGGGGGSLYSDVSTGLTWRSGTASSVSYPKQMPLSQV
Experimental: as §1, §2

T1 sequence (P28223 whole entry): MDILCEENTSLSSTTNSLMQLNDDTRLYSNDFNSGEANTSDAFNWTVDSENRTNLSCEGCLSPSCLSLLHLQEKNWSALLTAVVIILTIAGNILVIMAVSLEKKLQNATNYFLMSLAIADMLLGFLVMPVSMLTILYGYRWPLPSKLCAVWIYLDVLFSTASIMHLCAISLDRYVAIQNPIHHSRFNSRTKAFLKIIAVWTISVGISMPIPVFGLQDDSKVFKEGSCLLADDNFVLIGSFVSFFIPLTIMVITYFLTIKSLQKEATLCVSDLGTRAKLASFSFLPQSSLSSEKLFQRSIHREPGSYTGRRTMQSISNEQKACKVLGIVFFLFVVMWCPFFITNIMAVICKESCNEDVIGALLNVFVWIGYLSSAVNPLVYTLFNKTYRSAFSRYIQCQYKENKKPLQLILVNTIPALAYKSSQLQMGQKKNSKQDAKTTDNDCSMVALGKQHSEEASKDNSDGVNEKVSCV

SMILES | NanoBRET Fold Response (HTR2A; tracer 0.1μM) | NanoBRET Fold Response (HTR2A; tracer 1μM) | NanoBRET Fold Response (TACR3; tracer 0.1μM) | NanoBRET Fold Response (TACR3; tracer 1μM) | NanoBRET Fold Response (FZD8; tracer 0.1μM) | NanoBRET Fold Response (FZD8; tracer 1μM)
CC(C)N(CC[C@H](c1ccccc1)c1cc(CCNC(=O)CCOCCOCCOCCOCCNC(=O)CCc2ccc3n2[B-](F)(F)[N+]2=C(c4ccc[nH]4)C=CC2=C3)ccc1O)C(C)C [Tolterodine-2-NB590] | 1.05 | 1.11 | 1.11 | 1.08 | 1.07 | 1.12
CC(C)N(CC[C@H](c1ccccc1)c1cc(CCNC(=O)c2ccc(CNC(=O)CCc3ccc4n3[B-](F)(F)[N+]3=C(c5ccc[nH]5)C=CC3=C4)cc2)ccc1O)C(C)C [Tolterodine-BZ-NB590] | 0.93 | 1.04 | 0.98 | 1.06 | 1.00 | 1.02
CCCn1c(=O)c2[nH]c(-c3ccc(OCC(=O)NCCNC(=O)CCOCCNC(=O)c4ccc(CNC(=O)CCc5ccc6n5[B-](F)(F)[N+]5=C(c7ccc[nH]7)C=CC5=C6)cc4)cc3)nc2n(CCC)c1=O [XAC-3-NB590] | 0.99 | 1.10 | 1.06 | 1.01 | 0.95 | 1.02
